The values that follow come from US20120226186A1 (priority 2009, published 2012).

For assay [1] the following is noted: all 20 subjects, i.v. computer-controlled infusion.
Assay [2] concerns nociceptive flexor reflexes. The following applies: Willer, 1985; cited from earlier work.

With `CC(C)c1cccc(C(C)C)c1O` [propofol, 2,6-diisopropylphenol], the “median effect compartment concentration at loss of reaction to repeated verbal commands” value in assay [1] (median) is 4 µg/mL. Moreover, the “range of effect compartment concentration at loss of reaction to repeated verbal commands” value in assay [1] (range) was in the range of 2 to 5 µg/mL.
With `CN1CC[C@]23c4c5ccc(O)c4O[C@H]2[C@@H](O)C=C[C@H]3[C@H]1C5` [morphine], the “reflex threshold of nociceptive flexor reflexes after application of the analgetic” value in assay [2] was “changed in a concentration dependent manner”.
